Data reported in patent publication US10308650B2, “Pesticidally active tetracyclic derivatives with sulfur containing substituents” (Syngenta Participations AG, priority 2014, dated 2019).

Tests used:
Assay type in all cases: in vivo
[1] = test system: Bemisia tabaci (Cotton White Fly); experiment: Activity against Bemisia tabaci: feeding/contact activity; details: foliar, 144 h, application rate of 200 ppm, cotton leaf discs, adult white flies, 6 days after incubation
Description: Example B1: Activity Against Bemisia tabaci (Cotton White Fly): Feeding/Contact Activity
Cotton leaf discs were placed on agar in 24-well microtiter plates and sprayed with aqueous test solutions prepared from 10,000 ppm DMSO stock solutions. After drying the leaf discs were infested with adult white flies. The samples were checked for mortality 6 days after incubation.

[2] = test system: Diabrotica balteata (Corn Root Worm); experiment: Activity against Diabrotica balteata; details: 96 h, application rate of 200 ppm, maize sprouts, L2 larvae, 4 days after infestation, read-out: effect in at least one of the two categories (mortality or growth inhibition)
Description: Example B2: Activity Against Diabrotica balteata (Corn Root Worm)
Maize sprouts placed onto an agar layer in 24-well microtiter plates were treated with aqueous test solutions prepared from 10,000 ppm DMSO stock solutions by spraying. After drying, the plates were infested with L2 larvae (6 to 10 per well). The samples were assessed for mortality and growth inhibition in comparison to untreated samples 4 days after infestation.

[3] = test system: Euschistus heros (Neotropical Brown Stink Bug); experiment: Activity against Euschistus heros; details: 120 h, application rate of 200 ppm, soybean leaves, N2 nymphs, 5 days after infestation, read-out: effect in at least one of the two categories (mortality or growth inhibition)
Description: Example B3: Activity Against Euschistus heros (Neotropical Brown Stink Bug)
Soybean leaves on agar in 24-well microtiter plates were sprayed with aqueous test solutions prepared from 10,000 ppm DMSO stock solutions. After drying the leaves were infested with N2 nymphs. The samples were assessed for mortality and growth inhibition in comparison to untreated samples 5 days after infestation.

[4] = test system: Frankliniella occidentalis (Western Flower Thrips); experiment: Activity against Frankliniella occidentalis: feeding/contact activity; details: foliar, 168 h, application rate of 200 ppm, sunflower leaf discs, population of mixed ages, 7 days after infestation
Description: Example B4: Activity Against Frankliniella occidentalis (Western Flower Thrips): Feeding/Contact Activity
Sunflower leaf discs were placed on agar in 24-well microtiter plates and sprayed with aqueous test solutions prepared from 10,000 DMSO stock solutions. After drying the leaf discs were infested with a Frankliniella population of mixed ages. The samples were assessed for mortality 7 days after infestation.

[5] = test system: Myzus persicae (Green Peach Aphid); experiment: Activity against Myzus persicae: feeding/contact activity; details: foliar, 144 h, application rate of 200 ppm, sunflower leaf discs, aphid population of mixed ages, 6 days after infestation, read-out: mortality
Description: Example B5: Activity Against Myzus persicae (Green Peach Aphid): Feeding/Contact Activity
Sunflower leaf discs were placed onto agar in a 24-well microtiter plate and sprayed with aqueous test solutions prepared from 10,000 ppm DMSO stock solutions. After drying, the leaf discs were infested with an aphid population of mixed ages. The samples were assessed for mortality 6 days after infestation.

[6] = test system: Myzus persicae (Green Peach Aphid); experiment: Activity against Myzus persicae: systemic activity; details: 144 h, test rate of 24 ppm, roots of infested pea seedlings in test solution, 6 days, read-out: mortality
Description: Example B6: Activity Against Myzus persicae (Green Peach Aphid). Systemic Activity
Roots of pea seedlings infested with an aphid population of mixed ages were placed directly into aqueous test solutions prepared from 10,000 DMSO stock solutions. The samples were assessed for mortality 6 days after placing seedlings into test solutions.

[7] = test system: Plutella xylostella (Diamond Back Moth); experiment: Activity against Plutella xylostella; details: 120 h, application rate of 200 ppm, artificial diet, L2 larvae, 5 days after infestation, read-out: effect in at least one of the two categories (mortality or growth inhibition)
Description: Example B8: Activity Against Plutella xylostella (Diamond Back Moth)
24-well microtiter plates with artificial diet were treated with aqueous test solutions prepared from 10,000 ppm DMSO stock solutions by pipetting. After drying, the plates were infested with L2 larvae (10 to 15 per well). The samples were assessed for mortality and growth inhibition in comparison to untreated samples 5 days after infestation.

[8] = test system: Spodoptera littoralis (Egyptian Cotton Leaf Worm); experiment: Activity against Spodoptera littoralis (cotton leaf discs, spray); details: foliar, 72 h, application rate of 200 ppm, cotton leaf discs, L1 larvae, 3 days after infestation, read-out: control (mortality, anti-feeding effect, growth inhibition)
[9] = test system: Spodoptera littoralis (Egyptian Cotton Leaf Worm); experiment: Activity against Spodoptera littoralis (lettuce, uptake by the roots from agar); details: 144 h, test rate of 12.5 ppm, lettuce grown on treated agar, Spodoptera eggs, 6 days after infestation, read-out: effect in at least one of the three categories (mortality, anti-feeding, or growth inhibition)
[10] = test system: Thrips tabaci (Onion Thrips); experiment: Activity against Thrips tabaci: feeding/contact activity; details: foliar, 144 h, application rate of 200 ppm, sunflower leaf discs, thrips population of mixed ages, 6 days after infestation
Description: Example B12: Activity Against Thrips tabaci (Onion Thrips) Feeding/Contact Activity
Sunflower leaf discs were placed on agar in 24-well microtiter plates and sprayed with aqueous test solutions prepared from 10,000 ppm DMSO stock solutions. After drying the leaf discs were infested with a thrips population of mixed ages. The samples were assessed for mortality 6 days after infestation.

[11] = test system: Aedes aegypti (Yellow Fever Mosquito); experiment: Activity against Aedes aegypti; details: 200 ppm in ethanol, dry deposit in 12 well plates, adult females, after 48 h and/or 24 h
Description: Example B13: Activity Against Aedes aegypti (Yellow Fever Mosquito)
Test solutions, at an application rate of 200 ppm in ethanol, were applied to 12 well tissue culture plates. Once the deposits were dry, five, two to five day old adult female Aedes aegypti were added to each well, and sustained with a 10% sucrose solution in a cotton wool plug. Assessment of knockdown was made one hour after introduction, and mortality was assessed at 24 and 48 hours after introduction.

CCS(=O)(=O)c1cc2c(cc1-c1nc3cc(C(F)(F)F)ncc3n1C)nc(C(F)(F)F)n2C [Compound A9, 2-[6-ethylsulfonyl-1-methyl-2-(trifluoromethyl)benzimidazol-5-yl]-3-methyl-6-(trifluoromethyl)imidazo[4,5-c]pyridine]
≥ 80%: mortality at 200 ppm [1] | percent effect (mortality or growth inhibition) at 200 ppm [2] | percent effect (mortality or growth inhibition) at 200 ppm [3] | mortality at 200 ppm [4] | mortality at 200 ppm [5] | mortality at 24 ppm [6] | percent effect (mortality or growth inhibition) at 200 ppm [7] | mortality at 200 ppm [8] | percent effect (mortality, anti-feeding or growth inhibition) at 12.5 ppm [9] | mortality at 200 ppm [10] | pest or weed control at 200 ppm [11]

CCS(=O)(=O)c1cc2nc(C(F)(F)F)n(C)c2nc1-c1nc2cc(C(F)(F)F)ncc2n1C [Compound A32, 6-ethylsulfonyl-3-methyl-5-[3-methyl-6-(trifluoromethyl)imidazo[4,5-c]pyridin-2-yl]-2-(trifluoromethyl)imidazo[4,5-b]pyridine]
≥ 80%: mortality at 200 ppm [1] | percent effect (mortality or growth inhibition) at 200 ppm [2] | percent effect (mortality or growth inhibition) at 200 ppm [3] | mortality at 200 ppm [5] | mortality at 24 ppm [6] | percent effect (mortality or growth inhibition) at 200 ppm [7] | mortality at 200 ppm [8] | percent effect (mortality, anti-feeding or growth inhibition) at 12.5 ppm [9] | mortality at 200 ppm [10] | pest or weed control at 200 ppm [11]

CCS(=O)(=O)c1cc2c(nc1-c1nc3cc(C(F)(F)F)ncc3n1C)CC(C)(C)O2 [Compound A59, 6-ethylsulfonyl-2,2-dimethyl-5-[3-methyl-6-(trifluoromethyl)imidazo[4,5-c]pyridin-2-yl]-3H-furo[3,2-b]pyridine]
≥ 80%: mortality at 200 ppm [1] | percent effect (mortality or growth inhibition) at 200 ppm [2] | percent effect (mortality or growth inhibition) at 200 ppm [3] | mortality at 200 ppm [5] | mortality at 24 ppm [6] | percent effect (mortality or growth inhibition) at 200 ppm [7] | mortality at 200 ppm [8] | percent effect (mortality, anti-feeding or growth inhibition) at 12.5 ppm [9] | mortality at 200 ppm [10]
